Measurements: patent US20100216779A1 (GLAXOSMITHKLINE LLC, priority 2007, published 2010)

Assays:
Assay type in all cases: cell-based
[1] = test system: NCI-H929 (multiple myeloma); experiment: Inhibition of cell proliferation, CellTiter-Glo, NCI-H929; conditions: Homo sapiens, 72 h
Method in brief: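 Cells were grown in medium with 10% FBS at 37° C, 5% CO2. Cell number was read as CellTiter-Glo luminescence (cellular ATP), with untreated wells as control.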

COLO205 (colon) = experiment: Inhibition of cell proliferation, CellTiter-Glo, COLO205; conditions: Homo sapiens, COLO 205, 72 h
Method in brief: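 Exponentially growing COLO205 cells in medium with 10% FBS were plated below 2000 cells/well at 37 °C, 5% CO2. Untreated wells served as controls.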

[2] = molecular target: T1, human IGF-1R (NIH-3T3 cells over expressing human IGF-1R) (Homo sapiens, UniProt P08069); experiment: IGF-1R cellular autophosphorylation (DELFIA); conditions: IGF-1 stimulated
T1 construct: expressed in transfected cells; host or cells: NIH-3T3 (mouse fibroblasts)
T1 sequence (P08069 31-1367): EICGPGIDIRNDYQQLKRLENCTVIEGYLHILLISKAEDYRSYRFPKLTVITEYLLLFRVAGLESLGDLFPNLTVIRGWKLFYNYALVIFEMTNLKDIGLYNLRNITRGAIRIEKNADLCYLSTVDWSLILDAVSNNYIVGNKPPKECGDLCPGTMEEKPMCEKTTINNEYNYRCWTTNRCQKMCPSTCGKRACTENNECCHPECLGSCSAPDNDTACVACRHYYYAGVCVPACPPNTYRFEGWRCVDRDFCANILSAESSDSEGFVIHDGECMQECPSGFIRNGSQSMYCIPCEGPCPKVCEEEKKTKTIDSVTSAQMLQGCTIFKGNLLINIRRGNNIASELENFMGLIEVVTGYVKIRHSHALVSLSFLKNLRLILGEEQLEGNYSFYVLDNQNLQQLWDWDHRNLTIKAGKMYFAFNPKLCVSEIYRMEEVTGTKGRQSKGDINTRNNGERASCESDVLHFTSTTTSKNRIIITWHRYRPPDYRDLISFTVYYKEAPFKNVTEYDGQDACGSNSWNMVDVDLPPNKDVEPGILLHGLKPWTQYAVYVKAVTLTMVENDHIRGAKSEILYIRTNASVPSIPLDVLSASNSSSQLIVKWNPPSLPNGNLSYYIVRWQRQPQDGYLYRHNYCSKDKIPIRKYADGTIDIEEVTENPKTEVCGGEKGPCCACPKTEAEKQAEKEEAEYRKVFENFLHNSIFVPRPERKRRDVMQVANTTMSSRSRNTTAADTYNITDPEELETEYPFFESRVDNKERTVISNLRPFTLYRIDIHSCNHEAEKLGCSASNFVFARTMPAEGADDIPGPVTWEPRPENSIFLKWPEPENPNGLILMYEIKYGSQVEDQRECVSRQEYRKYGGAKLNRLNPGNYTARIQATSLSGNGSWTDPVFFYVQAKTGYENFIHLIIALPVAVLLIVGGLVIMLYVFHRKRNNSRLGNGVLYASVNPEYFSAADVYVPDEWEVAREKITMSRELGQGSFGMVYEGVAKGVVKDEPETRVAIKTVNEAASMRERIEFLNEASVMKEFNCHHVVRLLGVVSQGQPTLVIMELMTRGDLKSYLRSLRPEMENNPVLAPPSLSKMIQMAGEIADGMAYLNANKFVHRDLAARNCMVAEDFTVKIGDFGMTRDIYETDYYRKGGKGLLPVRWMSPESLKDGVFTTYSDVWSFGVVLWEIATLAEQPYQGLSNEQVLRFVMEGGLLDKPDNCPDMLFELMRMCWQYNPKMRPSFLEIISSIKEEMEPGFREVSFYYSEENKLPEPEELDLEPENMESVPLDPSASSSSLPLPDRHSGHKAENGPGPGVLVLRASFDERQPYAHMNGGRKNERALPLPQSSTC
Method in brief: (§1)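 Receptor-overexpressing NIH-3T3, 10% FBS, 37 °C; cpd 30 uM–1.5 nM × 2 h; stim IGF-1 30 ng/mL (IGF-1R) or insulin 3 ug/mL (IR), 15 min; lysate DELFIA, Eu anti-pTyr; % of stimulated signal.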

[3] = molecular target: T2, IR (NIH-3T3 cells over expressing human IGF-1R or IR) (Homo sapiens, UniProt P06213); experiment: IR cellular autophosphorylation (DELFIA); conditions: NIH-3T3 cells over expressing IR, insulin stimulated
T2 construct: expressed in transfected cells; host or cells: NIH-3T3 (mouse fibroblasts)
T2 sequence (P06213 28-1382): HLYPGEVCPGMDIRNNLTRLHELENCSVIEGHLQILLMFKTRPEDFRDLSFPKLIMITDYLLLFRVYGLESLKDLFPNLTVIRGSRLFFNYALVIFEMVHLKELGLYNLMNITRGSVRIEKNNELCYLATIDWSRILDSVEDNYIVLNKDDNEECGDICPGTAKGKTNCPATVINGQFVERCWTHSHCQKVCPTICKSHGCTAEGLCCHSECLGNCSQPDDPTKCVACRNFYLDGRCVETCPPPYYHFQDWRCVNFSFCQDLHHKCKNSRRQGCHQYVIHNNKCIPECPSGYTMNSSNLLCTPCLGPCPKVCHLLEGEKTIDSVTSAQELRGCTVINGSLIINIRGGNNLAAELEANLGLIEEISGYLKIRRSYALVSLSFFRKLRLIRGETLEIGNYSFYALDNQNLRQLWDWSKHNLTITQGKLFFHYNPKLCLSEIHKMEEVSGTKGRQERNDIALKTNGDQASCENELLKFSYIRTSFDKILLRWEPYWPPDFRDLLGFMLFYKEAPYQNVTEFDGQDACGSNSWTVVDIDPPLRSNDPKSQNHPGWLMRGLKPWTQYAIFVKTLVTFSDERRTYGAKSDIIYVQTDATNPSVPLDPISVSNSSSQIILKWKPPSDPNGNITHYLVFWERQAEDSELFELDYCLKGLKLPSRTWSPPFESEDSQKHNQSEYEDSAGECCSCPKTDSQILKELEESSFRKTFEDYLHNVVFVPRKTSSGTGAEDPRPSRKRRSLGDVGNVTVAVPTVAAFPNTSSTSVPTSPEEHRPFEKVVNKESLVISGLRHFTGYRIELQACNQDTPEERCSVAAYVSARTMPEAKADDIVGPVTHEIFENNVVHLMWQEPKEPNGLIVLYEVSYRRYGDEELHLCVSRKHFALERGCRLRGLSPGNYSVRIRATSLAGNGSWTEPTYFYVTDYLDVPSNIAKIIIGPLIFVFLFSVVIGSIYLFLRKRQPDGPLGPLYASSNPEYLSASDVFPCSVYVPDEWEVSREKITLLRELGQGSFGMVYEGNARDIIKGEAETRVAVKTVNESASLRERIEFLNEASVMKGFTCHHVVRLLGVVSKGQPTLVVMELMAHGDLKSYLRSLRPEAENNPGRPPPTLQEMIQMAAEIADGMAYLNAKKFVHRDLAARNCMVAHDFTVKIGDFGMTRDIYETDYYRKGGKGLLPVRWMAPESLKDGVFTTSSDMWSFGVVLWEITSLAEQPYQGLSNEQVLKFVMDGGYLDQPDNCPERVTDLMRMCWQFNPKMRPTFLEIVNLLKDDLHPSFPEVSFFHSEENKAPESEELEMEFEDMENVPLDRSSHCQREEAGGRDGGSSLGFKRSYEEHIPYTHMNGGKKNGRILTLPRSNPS
Method in brief: as §1

Structure (SMILES)	IC50 [1]	IC50 (COLO205 (colon))	IC50 [2]	IC50 [3]
CCCN1CCN(c2ccc(Nc3nccc(-c4c(-c5cccc(C(=O)Nc6c(F)cccc6F)c5)nc5ccccn45)n3)c(OCC)c2)CC1 [Example 153, N-(2,6-difluorophenyl)-3-[3-(2-{[2-(ethyloxy)-4-(4-propyl-1-piperazinyl)phenyl]amino}-4-pyrimidinyl)imidazo[1,2-a]pyridin-2-yl]benzamide]	0.25 to 1 µM	0.25 to 1 µM	0.1 to 0.5 µM	< 0.1 µM
CCCN1CCC(c2ccc(Nc3nccc(-c4c(-c5cccc(C(=O)Nc6c(F)cccc6F)c5)nc5ccccn45)n3)c(OCC)c2)CC1 [Example 155, N-(2,6-difluorophenyl)-3-[3-(2-{[2-(ethyloxy)-4-(1-propyl-4-piperidinyl)phenyl]amino}-4-pyrimidinyl)imidazo[1,2-a]pyridin-2-yl]benzamide]	< 0.25 µM	0.25 to 1 µM	< 0.1 µM	< 0.1 µM
CCCN1CCC(c2cc(OC)c(Nc3nccc(-c4c(-c5ccc(OC)c(C(=O)Nc6c(F)cccc6F)c5)nc5ccccn45)n3)cc2C)CC1 [Example 157, N-(2,6-difluorophenyl)-5-[3-(2-{[5-methyl-2-(methyloxy)-4-(1-propyl-4-piperidinyl)phenyl]-amino}-4-pyrimidinyl)imidazo[1,2-a]pyridin-2-yl]-2-(methyloxy)benzamide]	< 0.25 µM	< 0.25 µM	< 0.1 µM	< 0.1 µM
CCCN1CCC(c2cc(OC)c(Nc3nccc(-c4c(-c5cccc(C(=O)Nc6c(F)cccc6F)c5)nc5ccccn45)n3)cc2C)CC1 [Example 159, N-(2,6-difluorophenyl)-3-[3-(2-{[5-methyl-2-(methyloxy)-4-(1-propyl-4-piperidinyl)phenyl]amino}-4-pyrimidinyl)imidazo[1,2-a]pyridin-2-yl]benzamide]	< 0.25 µM	0.25 to 1 µM	< 0.1 µM	< 0.1 µM
CCOc1ccc(-c2nc3ccccn3c2-c2ccnc(Nc3ccc(C4CCN(CC(C)C)CC4)cc3OC)n2)cc1C(=O)Nc1c(F)cccc1F [Example 161, N-(2,6-difluorophenyl)-2-(ethyloxy)-5-{3-[2-({2-(methyloxy)-4-[1-(2-methylpropyl)-4-piperidinyl]phenyl}amino)-4-pyrimidinyl]imidazo[1,2-a]pyridin-2-yl}benzamide]	< 0.25 µM	0.25 to 1 µM	< 0.1 µM	< 0.1 µM
COc1cc(C2CCN(CC(C)C)CC2)ccc1Nc1nccc(-c2c(-c3cccc(C(=O)Nc4c(F)cccc4F)c3)nc3ccccn23)n1 [Example 162, N-(2,6-difluorophenyl)-3-{3-[2-({2-(methyloxy)-4-[1-(2-methylpropyl)-4-piperidinyl]phenyl}amino)-4-pyrimidinyl]imidazo[1,2-a]pyridin-2-yl}benzamide]	< 0.25 µM	0.25 to 1 µM	< 0.1 µM	< 0.1 µM
COc1cc(C2CCN(CCS(C)(=O)=O)CC2)c(C)cc1Nc1nccc(-c2c(-c3ccc(OC)c(C(=O)Nc4c(F)cccc4F)c3)nc3ccccn23)n1 [Example 163, N-(2,6-difluorophenyl)-5-(3-{2-[(5-methyl-2-(methyloxy)-4-{1-[2-(methylsulfonyl)ethyl]-4-piperidinyl}phenyl)amino]-4-pyrimidinyl}imidazo[1,2-a]pyridin-2-yl)-2-(methyloxy)benzamide]	< 0.25 µM	0.25 to 1 µM	< 0.1 µM	< 0.1 µM
CCOc1ccc(-c2nc3ccccn3c2-c2ccnc(Nc3cc(C)c(C4CCN(CCS(C)(=O)=O)CC4)cc3OC)n2)cc1C(=O)Nc1c(F)cccc1F [Example 164, N-(2,6-difluorophenyl)-2-(ethyloxy)-5-(3-{2-[(5-methyl-2-(methyloxy)-4-{1-[2-(methylsulfonyl)ethyl]-4-piperidinyl}phenyl)amino]-4-pyrimidinyl}imidazo[1,2-a]pyridin-2-yl)benzamide]	< 0.25 µM	< 0.25 µM	< 0.1 µM	< 0.1 µM
COc1cc(C2CCN(CCS(C)(=O)=O)CC2)c(C)cc1Nc1nccc(-c2c(-c3cccc(C(=O)Nc4c(F)cccc4F)c3)nc3ccccn23)n1 [Example 165, N-(2,6-difluorophenyl)-3-(3-{2-[(5-methyl-2-(methyloxy)-4-{1-[2-(methylsulfonyl)ethyl]-4-piperidinyl}phenyl)amino]-4-pyrimidinyl}imidazo[1,2-a]pyridin-2-yl)benzamide]	< 0.25 µM	0.25 to 1 µM	< 0.1 µM	< 0.1 µM
CCCc1cc(C2CCN(CCS(C)(=O)=O)CC2)ccc1Nc1nccc(-c2c(-c3cccc(C(=O)Nc4c(F)cccc4F)c3)nc3ccccn23)n1 [Example 166, N-(2,6-difluorophenyl)-3-(3-{2-[(4-{1-[2-(methylsulfonyl)ethyl]-4-piperidinyl}-2-propylphenyl)amino]-4-pyrimidinyl}imidazo[1,2-a]pyridin-2-yl)benzamide]	0.25 to 1 µM	0.25 to 1 µM	< 0.1 µM	0.1 to 0.5 µM
CCCc1cc(C2CCN(CCS(C)(=O)=O)CC2)ccc1Nc1nccc(-c2c(-c3ccc(OC)c(C(=O)Nc4c(F)cccc4F)c3)nc3ccccn23)n1 [Example 167, N-(2,6-difluorophenyl)-2-(methyloxy)-5-(3-{2-[(4-{1-[2-(methylsulfonyl)ethyl]-4-piperidinyl}-2-propylphenyl)amino]-4-pyrimidinyl}imidazo[1,2-a]pyridin-2-yl)benzamide]	> 1 µM	> 1 µM	< 0.1 µM	< 0.1 µM
CCCc1cc(C2CCN(CCS(C)(=O)=O)CC2)ccc1Nc1nccc(-c2c(-c3ccc(OCC)c(C(=O)Nc4c(F)cccc4F)c3)nc3ccccn23)n1 [Example 168, N-(2,6-difluorophenyl)-2-(ethyloxy)-5-(3-{2-[(4-{1-[2-(methylsulfonyl)ethyl]-4-piperidinyl}-2-propylphenyl)amino]-4-pyrimidinyl}imidazo[1,2-a]pyridin-2-yl)benzamide]	< 0.25 µM	0.25 to 1 µM	< 0.1 µM	< 0.1 µM

Next, values leading:

IC50 [1]	IC50 (COLO205 (colon))	IC50 [2]	IC50 [3]	Structure (SMILES)
< 0.25 µM	0.25 to 1 µM	< 0.1 µM	< 0.1 µM	CCCN1CCC(c2ccc(Nc3nccc(-c4c(-c5ccc(OC)c(C(=O)Nc6c(F)cccc6F)c5)nc5ccccn45)n3)c(OCC)c2)CC1 [Example 154, N-(2,6-difluorophenyl)-5-[3-(2-{[2-(ethyloxy)-4-(1-propyl-4-piperidinyl)phenyl]amino}-4-pyrimidinyl)imidazo[1,2-a]pyridin-2-yl]-2-(methyloxy)benzamide]
< 0.25 µM	0.25 to 1 µM	< 0.1 µM	< 0.1 µM	CCCN1CCC(c2ccc(Nc3nccc(-c4c(-c5ccc(OCC)c(C(=O)Nc6c(F)cccc6F)c5)nc5ccccn45)n3)c(OCC)c2)CC1 [Example 156, N-(2,6-difluorophenyl)-2-(ethyloxy)-5-[3-(2-{[2-(ethyloxy)-4-(1-propyl-4-piperidinyl)phenyl]amino}-4-pyrimidinyl)imidazo[1,2-a]pyridin-2-yl]benzamide]
< 0.25 µM	< 0.25 µM	< 0.1 µM	< 0.1 µM	CCCN1CCC(c2cc(OC)c(Nc3nccc(-c4c(-c5ccc(OCC)c(C(=O)Nc6c(F)cccc6F)c5)nc5ccccn45)n3)cc2C)CC1 [Example 158, N-(2,6-difluorophenyl)-2-(ethyloxy)-5-[3-(2-{[5-methyl-2-(methyloxy)-4-(1-propyl-4-piperidinyl)phenyl]amino}-4-pyrimidinyl)imidazo[1,2-a]pyridin-2-yl]benzamide]
< 0.25 µM	0.25 to 1 µM	< 0.1 µM	< 0.1 µM	COc1cc(C2CCN(CC(C)C)CC2)ccc1Nc1nccc(-c2c(-c3ccc(OC)c(C(=O)Nc4c(F)cccc4F)c3)nc3ccccn23)n1 [Example 160, N-(2,6-difluorophenyl)-2-(methyloxy)-5-{3-[2-({2-(methyloxy)-4-[1-(2-methylpropyl)-4-piperidinyl]phenyl}amino)-4-pyrimidinyl]imidazo[1,2-a]pyridin-2-yl}benzamide]
0.25 to 1 µM	0.25 to 1 µM	< 0.1 µM	< 0.1 µM	CCOc1cc(N2CCN(C(C)C)CC2)ccc1Nc1nccc(-c2c(-c3cccc(C(=O)Nc4c(F)cccc4F)c3)nc3ccccn23)n1 [Example 171, N-(2,6-difluorophenyl)-3-{3-[2-({2-(ethyloxy)-4-[4-(1-methylethyl)-1-piperazinyl]phenyl}amino)-4-pyrimidinyl]imidazo[1,2-a]pyridin-2-yl}benzamide]
< 0.25 µM	0.25 to 1 µM	< 0.1 µM	< 0.1 µM	CCOc1cc(N2CCN(C(C)C)CC2)ccc1Nc1nccc(-c2c(-c3ccc(OC)c(C(=O)Nc4c(F)cccc4F)c3)nc3ccccn23)n1 [Example 172, N-(2,6-difluorophenyl)-5-{3-[2-({2-(ethyloxy)-4-[4-(1-methylethyl)-1-piperazinyl]phenyl}-amino)-4-pyrimidinyl]imidazo[1,2-a]pyridin-2-yl}-2-(methyloxy)benzamide]
0.25 to 1 µM	0.25 to 1 µM	< 0.1 µM	< 0.1 µM	CCCN1CCN(c2ccc(Nc3nccc(-c4c(-c5cccc(C(=O)Nc6c(F)cccc6F)c5)nc5ccccn45)n3)c(OC)c2)CC1 [Example 173, N-(2,6-difluorophenyl)-3-[3-(2-{[2-(methyloxy)-4-(4-propyl-1-piperazinyl)phenyl]amino}-4-pyrimidinyl)imidazo[1,2-a]pyridin-2-yl]benzamide]
